Laboratory results published in ChEMBL document CHEMBL6074685, “Design, synthesis and biological evaluation of novel diaryl-substituted fused nitrogen heterocycles as tubulin polymerization inhibitors to overcome multidrug resistance in vitro and in vivo” (Eur J Med Chem, 2025).
Active and inactive are the calls of the source. The rule behind the calls is not given here.

Key:
[1] = Metabolic stability in mouse liver microsome assessed as half life measured upto 50 mins by LC-MS/MS analysis; format: ADME; settings: liver microsomes
[2] = Toxicity in BALB/c mouse implanted with human A549/T cell assessed as MCH level at 15 mg/kg, ip administered every 2 days and measured after 2 weeks (reference value: 29.2 pg); format: organism-based; settings: in vivo, 336 h
[3] = Toxicity in BALB/c mouse implanted with human A549/T cell assessed as platelet distribution width at 30 mg/kg, ip administered every 2 days and measured after 2 weeks (reference value: 15.3 fL); format: organism-based; settings: in vivo, 336 h
[4] = Toxicity in BALB/c mouse implanted with human A549/T cell assessed as monocyte count at 30 mg/kg, ip administered every 2 days and measured after 2 weeks (reference value: 30.6 %); format: organism-based; settings: in vivo, 336 h
[5] = Toxicity in BALB/c mouse implanted with human A549/T cell assessed as lymphocyte count at 15 mg/kg, ip administered every 2 days and measured after 2 weeks (reference value: […]); format: organism-based; settings: in vivo, 336 h
[6] = Toxicity in BALB/c mouse implanted with human A549/T cell assessed as Plate-letocrit at 30 mg/kg, ip administered every 2 days and measured after 2 weeks (reference value: 0.549%); format: organism-based; settings: in vivo, 336 h
A549 [7] = experiment: Induction of cell cycle arrest in human A549 cells assessed as accumulation of cells at G2/M phase by RNAse A/PI-staining based flow cytometric analysis; format: functional; settings: dose 25-100 nM
A549/TR [8] = experiment: Antiproliferative activity against human A549/T cell assessed as cell growth inhibition incubated for 48 hrs by MTT assay; format: functional, cell-based
[9] = Toxicity in BALB/c mouse implanted with human A549/T cell assessed as Plate-letocrit at 15 mg/kg, ip administered every 2 days and measured after 2 weeks (reference value: 0.549%); format: organism-based; settings: in vivo, 336 h
[10] = Toxicity in BALB/c mouse implanted with human A549/T cell assessed as RBC count at 15 mg/kg, ip administered every 2 days and measured after 2 weeks (reference value: 7.92 10^12/L); format: organism-based; settings: in vivo, 336 h
Tubulin (Homo sapiens) [11] = target: T1, Tubulin (Homo sapiens) (UniProt P68371+Q9H4B7+P0DPH7+P68366+Q13509+Q71U36+P04350+Q3ZCM7+P07437+P68363+Q9BQE3+Q6PEY2+Q13885+Q9BVA1+Q9BUF5); experiment: Disruption of microtubule network in human A549/T cell at 100 to 200 nM incubated for 24 hrs by immunofluorescence staining based confocal microscopy analysis; settings: dose 100-200 nM
[12] = Metabolic stability in human liver microsome assessed as intrinsic clearance measured upto 50 mins by LC-MS/MS analysis; format: ADME; settings: liver microsomes, read-out: CLH
[13] = Toxicity in BALB/c mouse implanted with human A549/T cell assessed as red blood cell distribution width-cell volume at 15 mg/kg, ip administered every 2 days and measured after 2 weeks (reference value: 25fL); format: organism-based; settings: in vivo, 336 h
[14] = Cytotoxicity against human MCF-10A cells assessed as inhibition of cell growth at 2 nM incubated for 48 hrs by MTT assay relative to control; format: toxicity, cell-based
[15] = Toxicity in BALB/c mouse implanted with human A549/T cell assessed as mean platelet volume at 15 mg/kg, ip administered every 2 days and measured after 2 weeks (reference value: 10.1 fL); format: organism-based; settings: in vivo, 336 h
[16] = Toxicity in BALB/c mouse implanted with human A549/T cell assessed as heart damage at 15 to 30 mg/kg, ip administered every 2 days by H and E staining based analysis; format: organism-based; settings: in vivo, 48 h, dose 15-30 mg/kg, time 2 day
[17] = Toxicity in BALB/c mouse implanted with human A549/T cell assessed as MCHC level at 30 mg/kg, ip administered every 2 days and measured after 2 weeks (reference value: 570 g/L); format: organism-based; settings: in vivo, 336 h
[18] = Toxicity in BALB/c mouse implanted with human A549/T cell assessed as mean platelet volume at 30 mg/kg, ip administered every 2 days and measured after 2 weeks (reference value: 10.1 fL); format: organism-based; settings: in vivo, 336 h
[19] = Metabolic stability in human liver microsome assessed as parent compound remaining measured upto 50 mins by LC-MS/MS analysis; format: ADME; settings: microsomes
[20] = Toxicity in BALB/c mouse implanted with human A549/T cell assessed as RBC count at 30 mg/kg, ip administered every 2 days and measured after 2 weeks (reference value: 7.92 10^12/L); format: organism-based; settings: in vivo, 336 h
[21] = Toxicity in BALB/c mouse implanted with human A549/T cell assessed as platelet count at 30 mg/kg, ip administered every 2 days and measured after 2 weeks (reference value: 539 […]); format: organism-based; settings: in vivo, 336 h
[22] = Toxicity in BALB/c mouse implanted with human A549/T cell assessed as red blood cell distribution width-cell size at 30 mg/kg, ip administered every 2 days and measured after 2 weeks (reference value: 12.1 fL); format: organism-based; settings: in vivo, 336 h
Tubulin (Homo sapiens) [23] = target: T1, Tubulin (Homo sapiens); experiment: Disruption of microtubule network in human A549 cells at 50 to 100 nM incubated for 24 hrs by immunofluorescence staining based confocal microscopy analysis; format: cell-based; settings: dose 50-100 nM
[24] = Toxicity in BALB/c mouse implanted with human A549/T cell assessed as lymphocyte count at 15 mg/kg, ip administered every 2 days and measured after 2 weeks (reference value: 56%); format: organism-based; settings: in vivo, 336 h
[25] = Toxicity in BALB/c mouse implanted with human A549/T cell assessed as red blood cell distribution width-cell size at 15 mg/kg, ip administered every 2 days and measured after 2 weeks (reference value: 12.1 fL); format: organism-based; settings: in vivo, 336 h
A549/TR [26] = experiment: Induction of apoptosis in human A549/T cell at 62.5 nM incubated for 48 hrs by V-FITC/PI staining based flow cytometry analysis relative to control; format: functional
A549 [27] = experiment: Effect on p-gp expression in human A549 cells by immunoblotting analysis; format: functional, cell-based
[28] = Toxicity in BALB/c mouse implanted with human A549/T cell assessed as liver damage at 15 to 30 mg/kg, ip administered every 2 days by H and E staining based analysis; format: organism-based; settings: in vivo, 48 h, dose 15-30 mg/kg, time 2 day
A549 [29] = experiment: Induction of apoptosis in human A549 cells at 100 nM incubated for 48 hrs by V-FITC/PI staining based flow cytometry analysis relative to control; format: functional
A549/TR [30] = experiment: Induction of apoptosis in human A549/T cell at 250 nM incubated for 48 hrs by V-FITC/PI staining based flow cytometry analysis relative to control; format: functional

half-life [1]: 1.05 h | IC50 (A549/TR [8]): 57 nM | Activity (Tubulin (Homo sapiens) [11]): Active | CLint scaled [12]: 23 mL/min/kg | Stability [19]: Stable | Activity (Tubulin (Homo sapiens) [23]): Active
SMILES: COc1ccc(-c2cc(-c3ccc(OC)c(OC)c3OC)c3nc[nH]c3c2)cc1N
Activity [2]: 28.9 pg | Activity [3]: 16.9 fL | Activity [4]: 23.4% | Activity [5]: 1.42 10^9/L | Activity [6]: 0.425% | Activity (A549 [7]): Dose-dependent-effect | Activity [9]: 0.531% | Activity [10]: 7.43 10^12/L | Activity [13]: 24 fL | inhibition at 48 h, 0.002 µM [14]: 1% | Activity [15]: 10.5 fL | Activity [16]: Non-toxic | Activity [17]: 624 g/L | Activity [18]: 10.2 fL | Activity [20]: 5.94 10^12/L | Activity [21]: 415 10^9/L | Activity [22]: 12.3 fL | Activity [24]: 50.7% | Activity [25]: 12.1 fL | Activity (A549/TR [26]): 22.22% | Activity (A549 [27]): inactive | Activity [28]: Non-toxic | Activity (A549 [29]): 44.42% | Activity (A549/TR [30]): 68.13%
